The text below walks through data of US20030134859A1 (SANKYO COMPANY, LIMITED, priority 2000, published 2003).

The subject of test [1] is leptin production. The test can be described thus: Enhancing activity for leptin production in adipocytes (ELISA). It is filed as cell-based, rat. Conditions: leptin concentration as % of control group; for activity at 1 µM / activity at 0.1 µM / activity at 0.001 µM / activity at 0.01 µM: Rattus norvegicus, Adipocyte, 24 h, read-out: Facilitating activity to produce leptin; for activity at 0.001 µM: 1 nm; for activity at 0.01 µM: 10 nm; for Facilitating activity to produce leptin: 24 hr. A digest of the protocol: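 Collagenase-dispersed epididymal adipocytes from 6-week-old male Wistar Imamichi rats, cultured in DMEM/F-12 (1:1) with test compound at final 1 µM, 100 nM, 10 nM or 1 nM (0.1% DMSO) for 24 h at 37 °C, 5% CO2. Leptin in filtrate measured by ELISA; activity = treated/DMSO-control leptin × 100 (%).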

The test system of test [2] is Rat white adipocytes. The experiment in a line: Inhibition of the differentiation of adipocytes (Oil Red O). The format is cell-based. The note with it: 100 nM test compound, 5 days, Oil Red O ABS550, control = 100%, blank = 0%, Table 3; for activity at 0.1 µM: Rattus norvegicus, Adipocyte, 120 h, read-out: Rate of Differentiation (%). A digest of the protocol:
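Rat white preadipocytes, 5,000 cells/well, given differentiation medium with compound at 100 nM final (0.1% DMSO) for 5 days at 37 °C. Lipid stained with Oil Red O, eluted in DMSO, read at 550 nm; differentiation % relative to DMSO control (100%) and blank (0%).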

Where a name gives a salt, the structure may show the parent alone.

For the compound `O=C(Nc1ccc(-c2ccccc2)cc1)c1cc([N+](=O)[O-])ccc1Cl` [Example 2, N-(4-Phenylphenyl)-(2-chloro-5-nitrophenyl)carboxamide], the activity at 1 µM in test [1] (1 μM) was 113%.

Turning to `COc1ccc(NC(=O)c2cc([N+](=O)[O-])ccc2Cl)cc1-c1ccccc1` [Example 6, N-(4-Methoxy-3-phenyl)phenyl-(2-chloro-5-nitrophenyl)carboxamide], in test [1] (1 μM), the activity at 1 µM came out at 108%. Moreover, the activity at 0.1 µM in test [1] (100 nm) is 111%.

On to `O=C(Nc1ccccc1-c1ccccc1)c1cc([N+](=O)[O-])ccc1Cl` [Example 7, N-(2-Phenylphenyl)-(2-chloro-5-nitrophenyl)carboxamide], for which, in test [1] (100 nm), the activity at 0.1 µM came to 114%.

With `Cc1ccc2nc(-c3ccc(NC(=O)c4cc([N+](=O)[O-])ccc4Cl)cc3)sc2c1` [Example 10, N-[4-(6-Methylbenzothiazol-2-yl)phenyl]-(2-chloro-5-nitrophenyl)carboxamide], the activity at 0.1 µM in test [2] was found to be 51.1%. For the same compound, the activity at 1 µM in test [1] (1 μM) worked out at 118%.

Consider `N#Cc1ccc(NC(=O)c2cc([N+](=O)[O-])ccc2Cl)cc1` [Example 20, N-(4-Cyanophenyl)-(2-chloro-5-nitrophenyl)carboxamide], for which the activity at 0.1 µM in test [2] was 57.7%. Besides, the activity at 1 µM in test [1] (1 μM) was found to be 126%. In addition, in test [1], the activity at 0.001 µM was 130% and the activity at 0.01 µM is 135%. Moreover, the activity at 0.1 µM in test [1] (100 nm) was 155%.

`CCOC(=O)c1ccc(NC(=O)c2cc([N+](=O)[O-])ccc2Cl)cc1` [Example 26, N-(4-Ethoxycarbonylphenyl)-(2-chloro-5-nitrophenyl)carboxamide]: the activity at 0.1 µM in test [1] (100 nm) is 115%.

Take `CC(C)(C)c1cc(NC(=O)c2cc([N+](=O)[O-])ccc2Cl)cc(C(C)(C)C)c1O` [Example 29, N-(3,5-Di-t-butyl-4-hydroxyphenyl)-(2-chloro-5-nitrophenyl)carboxamide]: the activity at 1 µM in test [1] (1 μM) was 142%.

For `Cc1ccccc1-c1csc(NC(=O)c2cc([N+](=O)[O-])ccc2Cl)n1` [Example 39, N-[4-(2-Methylphenyl)thiazol-2-yl]-(2-chloro-5-nitrophenyl)carboxamide], the activity at 1 µM in test [1] (1 μM) was 119%. Besides, in test [1] (100 nm), the activity at 0.1 µM came to 109%.

As for `O=C(Nc1cccnc1)c1cc([N+](=O)[O-])ccc1Cl` [Example 50, N-(3-Pyridyl)-(2-chloro-5-nitrophenyl)carboxamide], in test [1] (1 μM), the activity at 1 µM amounted to 109%. Besides, in test [1], the activity at 0.001 µM worked out at 118% and the activity at 0.01 µM was found to be 124%. For the same compound, the activity at 0.1 µM in test [1] (100 nm) came to 119%.

In the case of `Cc1ccc(NC(=O)c2cc([N+](=O)[O-])ccc2Cl)nc1` [Example 52, N-(5-Methylpyridin-2-yl)-(2-chloro-5-nitrophenyl)carboxamide], the activity at 0.001 µM in test [1] is 111%.

Take `O=C(Nc1ccc2c3c(cccc13)CC2)c1cc([N+](=O)[O-])ccc1Cl` [Example 54, N-(Acenaphthen-5-yl)-(2-chloro-5-nitrophenyl)carboxamide]: the activity at 1 µM in test [1] (1 μM) came to 113%.

For the compound `Nc1ccc(NC(=O)c2cc([N+](=O)[O-])ccc2Cl)cc1` [Example 58, N-(4-Aminophenyl)-(2-chloro-5-nitrophenyl)carboxamide mono-hydrochloride], the activity at 0.1 µM in test [2] turned out to be 51.7%.

For `Cc1cc(Cl)nc(NC(=O)c2cc([N+](=O)[O-])ccc2Cl)n1` [Example 78, N-(4-Chloro-6-methylpyrimidin-2-yl)-(2-chloro-5-nitrophenyl)carboxamide], the activity at 1 µM in test [1] (1 μM) stood at 114%. In addition, in test [1] (100 nm), the activity at 0.1 µM is 126%.

Take `Cn1c(NC(=O)c2cc([N+](=O)[O-])ccc2Cl)nc2ccccc21` [Example 82, N-(1-Methylbenzimidazol-2-yl)-(2-chloro-5-nitrophenyl)carboxamide]: the activity at 1 µM in test [1] (1 μM) was determined as 111%. In addition, the activity at 0.1 µM in test [1] (100 nm) came to 108%.

With `O=C(Nc1cccc2nsnc12)c1cc([N+](=O)[O-])ccc1Cl` [Example 86, N-(2,1,3-Benzothiazol-4-yl)-(2-chloro-5-nitrophenyl)carboxamide], in test [1] (100 nm), the activity at 0.1 µM was found to be 110%.

Turning to `CC(C)(C)OC(=O)Nc1ccc(-c2ccc(NC(=O)c3cc([N+](=O)[O-])ccc3Cl)cc2)cc1` [Example 87, N-[4-[4-(tert-Butoxycarbonylamino)phenyl]phenyl]-(2-chloro-5-nitrophenyl)carboxamide], the activity at 0.1 µM in test [2] stood at 75.2%; in test [1] (100 nm), 113%. For the same compound, the activity at 1 µM in test [1] (1 μM) stood at 115%.

Consider `Cc1cc(NS(=O)(=O)c2ccc(NC(=O)c3cc([N+](=O)[O-])ccc3Cl)cc2)no1` [Example 99], for which, in test [1] (1 μM), the “Facilitating activity to produce leptin” value stood at 113.9%.

Turning to `CCCCCCN(CCCCCC)c1ccc(NC(=O)c2cc([N+](=O)[O-])ccc2Cl)cc1` [Example 138, N-[4-(N,N-di-n-Hexylamino)phenyl]-(2-chloro-5-nitrophenyl)carboxamide], the activity at 1 µM in test [1] (1 μM) turned out to be 111%.

Regarding `CN(C)c1cccc(NC(=O)c2cc([N+](=O)[O-])ccc2Cl)c1` [Example 176, N-(3-Dimethylamino)phenyl-(2-chloro-5-nitrophenyl)carboxamide], in test [1] (100 nm), the activity at 0.1 µM was 110%.

`O=C(Nc1ccc(S(=O)(=O)Nc2cccnc2)cc1)c1cc([N+](=O)[O-])ccc1Cl` [Example 178]: the activity at 1 µM in test [1] (1 μM) was 117%.

In the case of `O=C(Nc1cccc(O)c1)c1cc([N+](=O)[O-])ccc1Cl` [Example 191, N-(3-Hydroxyphenyl)-(2-chloro-5-nitrophenyl)carboxamide], in test [2], the activity at 0.1 µM was 63.4%.

On to `CCCCCCNc1ccc(-c2ccc(NC(=O)c3cc([N+](=O)[O-])ccc3Cl)cc2)cc1` [Example 195, N-[4-[4-(N-Hexylamino)phenyl]phenyl]-(2-chloro-5-nitrophenyl)carboxamide], for which the activity at 0.1 µM was 36.5% in test [2] and 123% in test [1] (100 nm). Moreover, the activity at 1 µM in test [1] (1 μM) came out at 120%. Further, in test [1], the activity at 0.01 µM amounted to 114%.

With `CCCCCCN(C)c1ccc(-c2ccc(NC(=O)c3cc([N+](=O)[O-])ccc3Cl)cc2)cc1` [Example 196, N-[4-[4-(N-Hexyl-N-methylamino)phenyl]phenyl]-(2-chloro-5-nitrophenyl)carboxamide], the activity at 0.1 µM in test [2] was 53.4%.

Regarding `CCCCCCN(CC)c1ccc(-c2ccc(NC(=O)c3cc([N+](=O)[O-])ccc3Cl)cc2)cc1` [Example 197, N-[4-[4-(N-Ethyl-N-hexylamino)phenyl]phenyl]-(2-chloro-5-nitrophenyl)carboxamide], the activity at 0.1 µM in test [2] came out at 45.7%.

On to `CCCCCCCCNc1ccc(-c2ccc(NC(=O)c3cc([N+](=O)[O-])ccc3Cl)cc2)cc1` [Example 219, N-[4-[4-(N-Octylamino)phenyl]phenyl]-(2-chloro-5-nitrophenyl)carboxamide], for which the figures for the activity at 0.1 µM in test [2] and in test [1] (100 nm) were 36.6% and 119%, respectively. Also, the activity at 1 µM in test [1] (1 μM) stood at 117%. Further, the activity at 0.01 µM in test [1] was 113%.

For `CCCCCCCCN(CCCCCC)c1ccc(-c2ccc(NC(=O)c3cc([N+](=O)[O-])ccc3Cl)cc2)cc1` [Example 220, N-[4-[4-(N-Hexyl-N-octylamino)phenyl]phenyl]-(2-chloro-5-nitrophenyl)carboxamide mono-hydrochloride], in test [2], the activity at 0.1 µM was 38.4%. In addition, in test [1] (1 μM), the activity at 1 µM amounted to 111%.

As to `CCN(c1ccc(NS(=O)(=O)c2ccc(NC(=O)c3cc([N+](=O)[O-])ccc3Cl)cc2)cc1)C(C)C` [Example 232, N-[[4-[4-(N-Ethyl-N-isopropylamino)phenyl]aminosulfonyl]phenyl]-(2-chloro-5-nitrophenyl)carboxamide], the activity at 0.1 µM in test [2] worked out at 45.4%.

As to `CC(C)(C)OC(=O)Nc1cccc(-c2csc(NC(=O)c3cc([N+](=O)[O-])ccc3Cl)n2)c1` [Example 234, N-[4-(3-tert-Butoxycarbonylaminophenyl)thiazol-2-yl]-(2-chloro-5-nitrophenyl)carboxamide], the activity at 0.1 µM in test [2] was 60.5%.

For the compound `CC(O)c1cccc(NC(=O)c2cc([N+](=O)[O-])ccc2Cl)c1` (stereo not drawn) [Example 239, N-[3-(1-Hydroxyethyl)phenyl]-(2-chloro-5-nitrophenyl)carboxamide], the activity at 0.1 µM in test [2] was found to be 52.8%.

On to `O=C(Nc1ccc(NC(=S)Nc2cccnc2)cc1)c1cc([N+](=O)[O-])ccc1Cl` [Example 257, N-[4-[(Pyridin-3-yl)aminothiocarbonylamino]phenyl]-(2-chloro-5-nitrophenyl)carboxamide], for which the activity at 0.1 µM in test [2] came out at 59.8%.

Take `O=C(Nc1ccc(CCNC(=S)Nc2cccnc2)cc1)c1cc([N+](=O)[O-])ccc1Cl` [Example 273, N-[4-[2-(Pyridin-3-yl)aminothiocarbonylaminoethyl]phenyl]-(2-chloro-5-nitrophenyl)carboxamide]: in test [2], the activity at 0.1 µM was 47.9%.

With “N-(Ethoxyphenyl)-(2-chloro-5-nitrophenyl)carboxamide [Example 229]”, in test [2], the “Rate of Differentiation (%)” value worked out at 62.7%.

Consider “N-[4-(Pyrrolidinylsulfonyl)phenyl]-(2-chloro-5-nitrophenyl)carboxamide [Example 152]”, for which, in test [1] (100 nm), the “Facilitating activity to produce leptin” value was found to be 116.4%.
